Measured values published in patent US20260199484A1, “PROTAC DEGRADERS OF MLLT1 AND/OR MLLT3” (DARK BLUE THERAPEUTICS LTD, priority 2024, published 2026).

Columns and labels:
[1] = test system: MV4-11 cells; experiment: MV4-11 cellular proliferative assay, Assay Format A (CellTiter-Glo, 120 h); format: cell-based; conditions: Homo sapiens, Assay format A, 120 h, read-out: IC50 (MV4-11 cellular proliferative assay)
Experimental: An MV4-11 proliferation assay was used to test the ability of compounds to reduce cell viability. MV4-11 cells (ATCC #CRL9591) were grown in IMDM medium (11510596, Gibco) supplemented with 10% fetal bovine serum (F7524, Gibco) and 1% Penicillin/Streptomycin (15140-122, Gibco) at 37° C. with 5% CO2. Cells were seeded in 384-well Elplasia plates (4447, Corning) at a density of 50 cells/well and treated with vehicle (DMSO) or compounds (10 serial semi-log dilutions, 30 μM as top concentration).
After 120 hours of treatment, cells were incubated for 10 min at RT with the CellTiter-Glo (CTG) reagent (G7571, Promega). Measurement of the luminescence signal was performed on a microplate reader (Ensight, PerkinElmer). CTG reagent measures the amount of ATP, which is directly proportional to the number of cells, to determine the number of viable cells in culture.
The data were analysed as follows:
[formula] • where x is the measured raw signal value of a well, (cr) is the median of the measured signal values for the Central Reference (DMSO) wells on a plate, (sr) is the median of the measured signal values for the Scale Reference (reference compound) wells on a plate.
[formula] • where the experimental set-up assumes the Hill parameters in certain ranges: S0~Central Reference (CR) from normalization (=Bottom), Sinf~Scale Reference (SR) from normalization (=Top), nHill ~1, AC50~within the measured concentration range.

[2] = biological target: T1, MLLT1 (Homo sapiens, UniProt Q03111); experiment: MLLT1 degradation assay in MV4-11 cells (JESS, 24 h); format: cell-based; parameters: endogenous in cells; host or cells: MV4-11 (ATCC CRL-9591); conditions: vs DMSO control
T1 sequence (Q03111 1-559): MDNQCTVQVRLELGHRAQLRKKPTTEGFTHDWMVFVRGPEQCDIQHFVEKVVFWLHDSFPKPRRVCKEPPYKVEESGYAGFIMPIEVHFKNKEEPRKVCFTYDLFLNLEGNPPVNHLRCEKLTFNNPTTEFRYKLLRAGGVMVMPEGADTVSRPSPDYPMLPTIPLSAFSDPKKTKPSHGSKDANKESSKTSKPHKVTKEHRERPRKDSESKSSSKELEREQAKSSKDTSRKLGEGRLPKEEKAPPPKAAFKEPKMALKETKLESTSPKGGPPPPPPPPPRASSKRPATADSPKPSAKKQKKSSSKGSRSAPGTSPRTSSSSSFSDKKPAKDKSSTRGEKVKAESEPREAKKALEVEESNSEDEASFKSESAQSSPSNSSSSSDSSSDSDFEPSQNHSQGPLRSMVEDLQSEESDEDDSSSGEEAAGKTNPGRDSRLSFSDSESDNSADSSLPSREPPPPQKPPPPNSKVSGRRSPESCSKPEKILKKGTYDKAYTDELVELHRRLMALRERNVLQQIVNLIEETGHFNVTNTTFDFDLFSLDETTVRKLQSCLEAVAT
Outline: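 MV4-11 cells treated at 1000, 100 and 10 nM (0.1% DMSO) for 24 h at 37° C; lysates (4 ug protein) run on JESS capillary immunoassay with MLLT1 and GAPDH antibodies. Peak areas give % degradation versus DMSO, binned A (≥75%) to D (<25%).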

| Structure (SMILES) | IC50 [1] | MLLT1% Degradation @ 0.01 μM [2] | MLLT1% Degradation @ 0.1 μM [2] | MLLT1% Degradation @ 1 μM [2] |
| --- | --- | --- | --- | --- |
| Cc1nn(CCCCCN2CCN(c3cccc4c3C(=O)N(C3CCC(=O)NC3=O)C4=O)CC2)c2cc(C(=O)Nc3cc4[nH]c([C@H]5CCCN5C)cc4cn3)ccc12 (stereo partly drawn) [Example 47, 1-(5-(4-(2-(2,6-dioxopiperidin-3-yl)-1,3-dioxoisoindolin-4-yl)piperazin-1-yl)pentyl)-3-methyl-N-(2-((R)-1-methylpyrrolidin-2-yl)-1H-pyrrolo[3,2-c]pyridin-6-yl)-1H-indazole-6-carboxamide] | < 100 nM | D (Category D: D<25% degradation) | D (Category D: D<25% degradation) | B (Category B: 50%≤B<75% degradation) |
| Cc1nn(CCCCCC#Cc2cccc3c2C(=O)N(C2CCC(=O)NC2=O)C3=O)c2cc(C(=O)Nc3cc4[nH]c([C@H]5CCCN5C)cc4cn3)ccc12 (stereo partly drawn) [Example 33, 1-(7-(2-(2,6-dioxopiperidin-3-yl)-1,3-dioxoisoindolin-4-yl)hept-6-yn-1-yl)-3-methyl-N-(2-((R)-1-methylpyrrolidin-2-yl)-1H-pyrrolo[3,2-c]pyridin-6-yl)-1H-indazole-6-carboxamide] | < 100 nM | B (Category B: 50%≤B<75% degradation) | B (Category B: 50%≤B<75% degradation) | A (Category A: A≥75% degradation) |
| Cc1nn(CCCCCC#Cc2cccc3c2CN(C2CCC(=O)NC2=O)C3=O)c2cc(C(=O)Nc3cc4[nH]c([C@H]5CCCN5C)cc4cn3)ccc12 (stereo partly drawn) [Example 30, 1-(7-(2-(2,6-dioxopiperidin-3-yl)-1-oxoisoindolin-4-yl)hept-6-yn-1-yl)-3-methyl-N-(2-((R)-1-methylpyrrolidin-2-yl)-1H-pyrrolo [3,2-c]pyridin-6-yl)-1H-indazole-6-carboxamide] | < 100 nM | A (Category A: A≥75% degradation) | A (Category A: A≥75% degradation) | A (Category A: A≥75% degradation) |
| Cc1nn(CCCCCCC#Cc2cccc3c2CN(C2CCC(=O)NC2=O)C3=O)c2cc(C(=O)Nc3cc4[nH]c([C@H]5CCCN5C)cc4cn3)ccc12 (stereo partly drawn) [Example 45, 1-(8-(2-(2,6-dioxopiperidin-3-yl)-1-oxoisoindolin-4-yl)oct-7-yn-1-yl)-3-methyl-N-(2-((R)-1-methylpyrrolidin-2-yl)-1H-pyrrolo[3,2-c]pyridin-6-yl)-1H-indazole-6-carboxamide] | < 100 nM | A (Category A: A≥75% degradation) | A (Category A: A≥75% degradation) | A (Category A: A≥75% degradation) |
| Cc1nn(CCCCCCCCNc2cccc3c2C(=O)N(C2CCC(=O)NC2=O)C3=O)c2cc(C(=O)Nc3cc4[nH]c([C@H]5CCCN5C)c(Cl)c4cn3)ccc12 (stereo partly drawn) [Example 18, N-(3-chloro-2-((R)-1-methylpyrrolidin-2-yl)-1H-pyrrolo[3,2-c]pyridin-6-yl)-1-(8-((2-(2,6-dioxopiperidin-3-yl)-1,3-dioxoisoindolin-4-yl)amino)octyl)-3-methyl-1H-indazole-6-carboxamide] | < 100 nM | A (Category A: A≥75% degradation) | A (Category A: A≥75% degradation) | A (Category A: A≥75% degradation) |
| Cc1nn(CCCCCCCCNc2ccc3c(c2)C(=O)N(C2CCC(=O)NC2=O)C3=O)c2cc(C(=O)Nc3cc4[nH]c([C@@H]5CCCN5C)cc4cn3)ccc12 (stereo partly drawn) [Example 15, 1-(8-{[2-(2,6-dioxopiperidin-3-yl)-1,3-dioxoisoindol-5-yl]amino}octyl)-3-methyl-N-{2-[(2S)-1-methylpyrrolidin-2-yl]-1H-pyrrolo[3,2-c]pyridin-6-yl}indazole-6-carboxamide] | < 100 nM | D (Category D: D<25% degradation) | A (Category A: A≥75% degradation) | A (Category A: A≥75% degradation) |
| [2H]C([2H])([2H])N1CCC[C@@H]1c1cc2cnc(NC(=O)c3ccc4c(C)nn(CCCCCCCC#Cc5cccc6c5CN(C5CCC(=O)NC5=O)C6=O)c4c3)cc2[nH]1 (stereo partly drawn) [Example 44, 1-(9-(2-(2,6-dioxopiperidin-3-yl)-1-oxoisoindolin-4-yl)non-8-yn-1-yl)-3-methyl-N-(2-((R)-1-(methyl-d3)pyrrolidin-2-yl)-1H-pyrrolo[3,2-c]pyridin-6-yl)-1H-indazole-6-carboxamide] | < 100 nM | B (Category B: 50%≤B<75% degradation) | A (Category A: A≥75% degradation) | A (Category A: A≥75% degradation) |
| Cc1nn(CCCC2CCN(c3cccc4c3C(=O)N(C3CCC(=O)NC3=O)C4=O)CC2)c2cc(C(=O)Nc3cc4[nH]c([C@H]5CCCN5C)cc4cn3)ccc12 (stereo partly drawn) [Example 27, 1-(3-(1-(2-(2,6-dioxopiperidin-3-yl)-1,3-dioxoisoindolin-4-yl)piperidin-4-yl)propyl)-3-methyl-N-(2-((R)-1-methylpyrrolidin-2-yl)-1H-pyrrolo[3,2-c]pyridin-6-yl)-1H-indazole-6-carboxamide] | < 100 nM | A (Category A: A≥75% degradation) | A (Category A: A≥75% degradation) | A (Category A: A≥75% degradation) |
| Cc1nn(CCCCCCNc2cccc3c2C(=O)N(C2CCC(=O)NC2=O)C3=O)c2cc(C(=O)Nc3cc4[nH]c([C@H]5CCCN5C)cc4cn3)ccc12 (stereo partly drawn) [Example 22, 1-(6-{[2-(2,6-dioxopiperidin-3-yl)-1,3-dioxoisoindol-4-yl]amino}hexyl)-3-methyl-N-{2-[(2R)-1-methylpyrrolidin-2-yl]-1H-pyrrolo[3,2-c]pyridin-6-yl}indazole-6-carboxamide] | < 100 nM | A (Category A: A≥75% degradation) | A (Category A: A≥75% degradation) | A (Category A: A≥75% degradation) |
| Cc1nn(CCCCCC2CCN(c3cccc4c3C(=O)N(C3CCC(=O)NC3=O)C4=O)CC2)c2cc(C(=O)Nc3cc4[nH]c([C@H]5CCCN5C)cc4cn3)ccc12 (stereo partly drawn) [Example 29, 1-(5-(1-(2-(2,6-dioxopiperidin-3-yl)-1,3-dioxoisoindolin-4-yl)piperidin-4-yl)pentyl)-3-methyl-N-(2-((R)-1-methylpyrrolidin-2-yl)-1H-pyrrolo[3,2-c]pyridin-6-yl)-1H-indazole-6-carboxamide] | < 100 nM | B (Category B: 50%≤B<75% degradation) | A (Category A: A≥75% degradation) | A (Category A: A≥75% degradation) |
| Cc1nn(CCOCCOCCNc2cccc3c2C(=O)N(C2CCC(=O)NC2=O)C3=O)c2cc(C(=O)Nc3cc4[nH]c([C@H]5CCCN5C)cc4cn3)ccc12 (stereo partly drawn) [Example 25, 1-(2-(2-(2-((2-(2,6-dioxopiperidin-3-yl)-1,3-dioxoisoindolin-4-yl)amino)ethoxy)ethoxy)ethyl)-3-methyl-N-(2-((R)-1-methylpyrrolidin-2-yl)-1H-pyrrolo[3,2-c]pyridin-6-yl)-1H-indazole-6-carboxamide] | < 100 nM |  | A (Category A: A≥75% degradation) | A (Category A: A≥75% degradation) |
